From publication PMC10528180 (Foods, 2023)
Read-outs that look alike come from different tables or passages of the source.

Experiments:
α-glucosidase = molecular target: T1, α-glucosidase (Saccharomyces cerevisiae, UniProt P53341); test: biochemical; conditions: for inhibition at 500 µM: read-out: α-Glucosidase inhibition
T1 construct: purchased Sigma-Aldrich Co
Description: (§1) The other reagents used in this experiment are analytically pure reagents purchased from Sigma-Aldrich Co. (St. Louis, MI, USA) unless specified otherwise.
(§2) The in vitro α-glucosidase activity assay was determined using spectrophotometry, as previously reported, with only minor modifications. In phosphate buffer with a pH of 6.8, 0.5 U/mL of α-glucosidase and the appropriate quantity of p-nitrophenyl-D-glucopyranoside (pNGP) were produced. […] Gradient dilution with a phosphate-buffered solution was used to create sample solutions of various concentrations. First, different concentrations of compound (10 μL), an enzyme solution (40 μL), and potassium phosphate buffer (100 μL) were pre-incubated in 96-well plates at 37 °C for 10 min.
(§3) The enzymatic inhibitory activity of the tested compounds was calculated using the following formula: Inhibition %=[(Abs control−Abs sample)/Abs control]×100
(§4) The IC50 values of the tested compounds were calculated using nonlinear fitting (logit method).

α-amylase = molecular target: T2, α-amylase (Sus scrofa, UniProt P00690); test: In vitro α-amylase activity assay (G3-CNP, absorbance 405 nm); assay type: biochemical, porcine; conditions: for inhibition at 500 µM: read-out: α-Amylase inhibition
T2 construct: α-amylase (EC 232-565-6, powder, ≥5 units/mg solid) isolated from porcine pancreas; purchased Sigma-Aldrich Co; host or cells: porcine pancreas
T2 sequence (P00690 16-511): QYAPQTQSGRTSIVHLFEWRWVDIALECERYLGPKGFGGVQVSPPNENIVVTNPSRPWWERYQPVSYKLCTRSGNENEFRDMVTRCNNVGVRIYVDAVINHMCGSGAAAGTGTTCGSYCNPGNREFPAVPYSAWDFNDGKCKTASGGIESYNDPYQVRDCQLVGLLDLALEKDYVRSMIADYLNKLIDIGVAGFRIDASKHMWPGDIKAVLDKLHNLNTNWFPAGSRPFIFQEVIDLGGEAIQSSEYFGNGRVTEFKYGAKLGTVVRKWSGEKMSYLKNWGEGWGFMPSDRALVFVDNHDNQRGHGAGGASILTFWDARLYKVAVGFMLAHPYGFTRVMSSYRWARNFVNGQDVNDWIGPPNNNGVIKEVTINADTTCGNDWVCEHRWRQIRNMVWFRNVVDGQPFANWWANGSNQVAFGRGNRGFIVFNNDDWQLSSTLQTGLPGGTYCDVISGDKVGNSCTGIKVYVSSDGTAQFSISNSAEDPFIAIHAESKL
Description: as §1
as §2, with “modifications. A total” for “modifications. In phosphate buffer with a pH”, “of 5” for “of 6.8, 0.5”, “of α-amylase” for “of α-glucosidase”, “of 2-chloro-4-nitrophenyl α-D-maltotrioside (G3-CNP)” for “of p-nitrophenyl-D-glucopyranoside (pNGP)”
as §3, §4

db/db mice = test: Postprandial blood glucose level measurement after oral starch load; assay type: in vivo; conditions: 100 mg/kg, oral starch 2 g/kg
Description: db/db mice and C57BL/6J mice were purchased f0rom Beijing Zhishan Health Medical Research Institute. The animal testing procedure was approved by Beijing Huayuan Times Technology Co., Ltd Ethics Committee on the Management and Welfare of Laboratory Animals. (Ethics review batch number: HYSD2023-04) and strictly follows the local and national codes of ethics. All mice were placed in a control chamber at 25 °C and 60% relative humidity with a light/dark period of 12/12 h. During this period, all mice had free access to normal feed and water. […] All mice were given starch (2 g/kg) orally 60 min after treatment. Blood samples were taken from the caudal vein and blood glucose was measured after 0, 30, 60, and 120 min. The area under the curve (AUC) was calculated using the trapezoidal rule.

[1] = read-out: α-amylase inhibition IC50±SEM
[2] = read-out: α-glucosidase inhibition IC50±SEM

T1 sequence (P53341 whole entry): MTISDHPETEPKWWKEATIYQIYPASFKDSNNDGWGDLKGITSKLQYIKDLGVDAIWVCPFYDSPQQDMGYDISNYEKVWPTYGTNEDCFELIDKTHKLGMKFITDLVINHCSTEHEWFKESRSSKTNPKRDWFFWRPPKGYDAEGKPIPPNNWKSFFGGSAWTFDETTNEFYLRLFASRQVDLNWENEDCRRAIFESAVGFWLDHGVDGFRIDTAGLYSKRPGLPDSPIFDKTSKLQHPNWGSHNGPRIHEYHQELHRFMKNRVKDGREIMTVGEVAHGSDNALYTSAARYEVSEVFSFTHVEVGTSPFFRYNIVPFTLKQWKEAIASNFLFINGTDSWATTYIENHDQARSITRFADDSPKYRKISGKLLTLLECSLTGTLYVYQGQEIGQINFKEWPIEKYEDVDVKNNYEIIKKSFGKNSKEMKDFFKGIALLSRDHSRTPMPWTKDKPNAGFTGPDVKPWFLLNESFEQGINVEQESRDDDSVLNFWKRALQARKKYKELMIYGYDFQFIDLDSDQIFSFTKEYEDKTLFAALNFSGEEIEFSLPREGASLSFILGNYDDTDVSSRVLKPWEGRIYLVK

C[C@H]1O[C@H](O[C@H]2[C@H](O)[C@@H](O)[C@@H](O[C@H]3[C@H](O)[C@@H](O)C(O)O[C@@H]3CO)O[C@@H]2CO)[C@H](O)[C@@H](O)[C@@H]1N[C@H]1C=C(CO)[C@@H](O)[C@H](O)[C@H]1O (stereo partly drawn) [Acarbose, reference compound]
inhibition at 500 µM (α-glucosidase): 49% | inhibition at 500 µM (α-amylase): 99% | glucose AUC (db/db mice): 43.0 mmol·h/L | reduction of glucose AUC of diabetic mice (db/db mice; vs model): 20.31%

O=c1cc(-c2ccc(O)cc2)oc2cc(O[C@@H]3O[C@H](CO)[C@@H](O)[C@H](O)[C@H]3O)cc(O)c12 [Apigetrin]
IC50 (α-glucosidase): 187 ± 6.93 µM | selectivity for glucosidase over α-amylase among the 12 compounds (α-glucosidase; inhibition at 500 µM of both enzymes compared): selective inhibition of glucosidase | inhibition at 500 µM (α-glucosidase): 74% | inhibition at 500 µM (α-amylase; at 500 µM): 12%

O=c1c(O[C@@H]2O[C@@H](CO)[C@H](O)[C@H]2O)c(-c2ccc(O)c(O)c2)oc2cc(O)cc(O)c12 [Avicularin]
IC50 (α-glucosidase): > 500 µM | inhibition at 500 µM (α-glucosidase): 33% | IC50 (α-amylase): > 500 µM | inhibition at 500 µM (α-amylase; at 500 µM): 19%

O=C(O[C@@H]1Cc2c(O)cc(O)cc2O[C@@H]1c1ccc(O)c(O)c1)c1cc(O)c(O)c(O)c1 [Epicatechin gallate]
IC50 (α-glucosidase): > 250 µM | inhibition at 500 µM (α-glucosidase): 61% | inhibition at 500 µM (α-amylase; at 500 µM): 62% | IC50 (α-amylase; [1]): > 250 µM

O=c1c(O[C@@H]2O[C@H](CO)[C@H](O)[C@H](O)[C@H]2O)c(-c2ccc(O)c(O)c2)oc2cc(O)cc(O)c12 [Hyperoside]
IC50 (α-glucosidase): > 500 µM | inhibition at 500 µM (α-glucosidase): 48% | inhibition at 500 µM (α-amylase; at 500 µM): 28% | IC50 (α-amylase; [1]): > 500 µM

O=c1cc(-c2ccc(O)cc2)oc2cc(O)c([C@@H]3O[C@H](CO)[C@@H](O)[C@H](O)[C@H]3O)c(O)c12 [Isovitexin]
IC50 (α-amylase): > 500 µM | inhibition at 500 µM (α-amylase; at 500 µM): 43%

O=c1cc(-c2ccccc2)oc2cc(O[C@@H]3O[C@H](CO)[C@@H](O)[C@H](O)[C@H]3O)c(O)c(O)c12 [Oroxin A]
inhibition at 500 µM (α-glucosidase): 10% | IC50 (α-glucosidase; [2]): > 500 µM | inhibition at 500 µM (α-amylase; at 500 µM): 60% | IC50 (α-amylase; [1]): > 250 µM

O=c1c(O)c(-c2ccc(O)c(O)c2)oc2cc(O[C@@H]3O[C@H](CO)[C@@H](O)[C@H](O)[C@H]3O)c(O)c(O)c12 [Quercetagitrin]
inhibition at 500 µM (α-glucosidase): 56% | IC50 (α-glucosidase; [2]): > 250 µM | inhibition at 500 µM (α-amylase; at 500 µM): 71% | IC50 (α-amylase; [1]): > 125 µM

C[C@@H]1O[C@@H](Oc2c(-c3ccc(O)c(O)c3)oc3cc(O)cc(O)c3c2=O)[C@H](O)[C@H](O)[C@H]1O [Quercitrin]
IC50 (α-glucosidase): > 500 µM | inhibition at 500 µM (α-glucosidase): 38% | inhibition at 500 µM (α-amylase; at 500 µM): 22% | IC50 (α-amylase; [1]): > 500 µM

O=C(O)C1OC(Oc2c(-c3ccc(O)c(O)c3)oc3cc(O)cc(O)c3c2=O)C(O)C(O)C1O (stereo not drawn) [Quercituron]
inhibition at 500 µM (α-glucosidase): 17% | IC50 (α-glucosidase; [2]): > 500 µM | inhibition at 500 µM (α-amylase; at 500 µM): 42% | IC50 (α-amylase; [1]): > 500 µM

O=c1c(O[C@@H]2O[C@H](CO)[C@H](O)[C@H](O)[C@H]2O)c(-c2ccc(O)cc2)oc2cc(O)cc(O)c12 [Trifolin]
inhibition at 500 µM (α-amylase; at 500 µM): 19% | IC50 (α-amylase; [1]): > 500 µM

Catechin gallate
α-Glucosidase inhibition (α-glucosidase; at 500 µM): 94% | α-Amylase inhibition (α-amylase; at 500 µM): 82%
